Test results taken from patent US7192906B2, “Substituted pyrazole derivatives, production process thereof, and herbicide compositions containing the derivatives” (SDS Biotech K.K., priority 2001, dated 2007).

Key:
Assay type in all cases: in vivo
[1] = system: soybean (Glycine max); test: Test Example 2 upland soil treatment, crop phytotoxicity; details: Table 5, upland soil treatment, index 0-5
Outline: (§1)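 Seeds are sown into upland soil and covered by roughly 1 cm of soil, then the compound, formulated as a wettable powder and diluted with water, is applied uniformly to the soil surface the following day at 1 kg active ingredient per hectare. Herbicidal effect or phytotoxicity is graded 0 to 5 after 21 days.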

[2] = system: wheat (Triticum aestivum); test: as above; details: Table 5, upland soil treatment, index 0-5
Outline: as §1

[3] = system: Rice (Oryza sativa); test: Test Example 3 paddy field treatment, crop phytotoxicity; details: Table 6, paddy field treatment, transplanted rice, active ingredient 1 kg per hectare, 21st day after dropping, index 0-5
Outline: (§2)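 Scoring used a 0–5 scale of herbicidal effect or phytotoxicity, from <10% to ≥90%, taken 21 days after treatment. Treatment was 1 kg a.i./ha as diluted wettable powder dripped onto 4 cm-deep flooded pots sown with the weeds, 10 days after transplanting two-leaf Koshihikari rice.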

[4] = system: soybean (Glycine max); test: Test Example 1 upland field foliage treatment, crop phytotoxicity; details: Table 4, upland field foliage treatment, index 0-5
Outline: (§3)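 Post-emergence foliar spray, 1 kg a.i./ha, wettable powder diluted in water, applied 14 d after sowing in upland soil. Rating 21 d post-application, 0–5 scale: 5 ≥90%, 4 70–<90%, 3 50–<70%, 2 30–<50%, 1 10–<30%, 0 <10% effect or injury.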

[5] = system: wheat (Triticum aestivum); test: as above; details: Table 4, upland field foliage treatment, index 0-5
Outline: as §3

[6] = system: Chenopodium album; test: Test Example 1 upland field foliage treatment; details: Table 4, upland field foliage treatment, index 0-5
Outline: as §3

[7] = system: Setaria viridis; test: Test Example 1 upland field foliage treatment; details: Table 4, upland field foliage treatment, index 0-5
Outline: as §3

[8] = system: Digitaria adscendens; test: Test Example 1 upland field foliage treatment; details: Table 4, upland field foliage treatment, index 0-5
Outline: as §3

[9] = system: Stellaria media; test: Test Example 1 upland field foliage treatment; details: Table 4, upland field foliage treatment, index 0-5
Outline: as §3

[10] = system: Ammannia multiflora; test: Test Example 3 paddy field treatment; details: Table 6, paddy field treatment, active ingredient 1 kg per hectare, 21st day after dropping, index 0-5
Outline: as §2

[11] = system: Monochoria vaginalis; test: Test Example 3 paddy field treatment; details: Table 6, paddy field treatment, active ingredient 1 kg per hectare, 21st day after dropping, index 0-5
Outline: as §2

[12] = system: Scirpus juncoides; test: Test Example 3 paddy field treatment; details: Table 6, paddy field treatment, active ingredient 1 kg per hectare, 21st day after dropping, index 0-5
Outline: as §2

[13] = system: Echinochloa crusgalli; test: Test Example 3 paddy field treatment; details: Table 6, paddy field treatment, active ingredient 1 kg per hectare, 21st day after dropping, index 0-5
Outline: as §2

[14] = system: Chenopodium album; test: Test Example 2 upland soil treatment; details: Table 5, upland soil treatment, index 0-5
Outline: as §1

[15] = system: Setaria viridis; test: Test Example 2 upland soil treatment; details: Table 5, upland soil treatment, index 0-5
Outline: as §1

[16] = system: Digitaria adscendens; test: Test Example 2 upland soil treatment; details: Table 5, upland soil treatment, index 0-5
Outline: as §1

[17] = system: Stellaria media; test: Test Example 2 upland soil treatment; details: Table 5, upland soil treatment, index 0-5
Outline: as §1

Structure (SMILES)	Herbicidal activity (phytotoxicity) GM: Soybean (Glycine max) [1]	Herbicidal activity (phytotoxicity) TA: Wheat (Triticum aestivum) [2]	Herbicidal activity (phytotoxicity) OS [3]	Herbicidal activity (phytotoxicity) GM: Soybean (Glycine max) [4]	Herbicidal activity (phytotoxicity) TA: Wheat (Triticum aestivum) [5]	Herbicidal activity CA: Chenopodium album [6]	Herbicidal activity SV: Setaria viridis [7]	Herbicidal activity DA: Digitaria adscendens [8]	Herbicidal activity SM: Stellaria media [9]	Herbicidal activity AM [10]	Herbicidal activity MV [11]	Herbicidal activity SJ [12]	Herbicidal activity EC [13]	Herbicidal activity CA: Chenopodium album [14]	Herbicidal activity SV: Setaria viridis [15]	Herbicidal activity DA: Digitaria adscendens [16]	Herbicidal activity SM: Stellaria media [17]
CON=C(Cn1cc(C)c(-c2ccccc2)n1)C(=O)N1CCOCC1 [Compound 120]	0 (herbicidal effect of not less than 0% and less than 10%, or phytotoxicity of 0% or more and less than 10%)	0 (herbicidal effect of not less than 0% and less than 10%, or phytotoxicity of 0% or more and less than 10%)	0 (herbicidal effect of not less than 0% and less than 10%, or phytotoxicity of 0% or more and less than 10%)	0 (herbicidal effect of not less than 0% and less than 10%, or phytotoxicity of 0% or more and less than 10%)	0 (herbicidal effect of not less than 0% and less than 10%, or phytotoxicity of 0% or more and less than 10%)	5 (herbicidal effect of not less than 90%, or phytotoxicity of 90% or more)	4 (herbicidal effect of not less than 70% and less than 90%, or phytotoxicity of 70% or more and less than 90%)	4 (herbicidal effect of not less than 70% and less than 90%, or phytotoxicity of 70% or more and less than 90%)	4 (herbicidal effect of not less than 70% and less than 90%, or phytotoxicity of 70% or more and less than 90%)	4 (herbicidal effect of not less than 70% and less than 90%, or phytotoxicity of 70% or more and less than 90%)	4 (herbicidal effect of not less than 70% and less than 90%, or phytotoxicity of 70% or more and less than 90%)	3 (herbicidal effect of not less than 50% and less than 70%, or phytotoxicity of 50% or more and less than 70%)	3 (herbicidal effect of not less than 50% and less than 70%, or phytotoxicity of 50% or more and less than 70%)	4 (herbicidal effect of not less than 70% and less than 90%, or phytotoxicity of 70% or more and less than 90%)	3 (herbicidal effect of not less than 50% and less than 70%, or phytotoxicity of 50% or more and less than 70%)	4 (herbicidal effect of not less than 70% and less than 90%, or phytotoxicity of 70% or more and less than 90%)	4 (herbicidal effect of not less than 70% and less than 90%, or phytotoxicity of 70% or more and less than 90%)
CON=C(Cn1cc(C)c(-c2ccccc2)n1)C(=O)N1CCSCC1 [Compound 122]	0 (herbicidal effect of not less than 0% and less than 10%, or phytotoxicity of 0% or more and less than 10%)	0 (herbicidal effect of not less than 0% and less than 10%, or phytotoxicity of 0% or more and less than 10%)	0 (herbicidal effect of not less than 0% and less than 10%, or phytotoxicity of 0% or more and less than 10%)	0 (herbicidal effect of not less than 0% and less than 10%, or phytotoxicity of 0% or more and less than 10%)	0 (herbicidal effect of not less than 0% and less than 10%, or phytotoxicity of 0% or more and less than 10%)	4 (herbicidal effect of not less than 70% and less than 90%, or phytotoxicity of 70% or more and less than 90%)	4 (herbicidal effect of not less than 70% and less than 90%, or phytotoxicity of 70% or more and less than 90%)	4 (herbicidal effect of not less than 70% and less than 90%, or phytotoxicity of 70% or more and less than 90%)	4 (herbicidal effect of not less than 70% and less than 90%, or phytotoxicity of 70% or more and less than 90%)	4 (herbicidal effect of not less than 70% and less than 90%, or phytotoxicity of 70% or more and less than 90%)	4 (herbicidal effect of not less than 70% and less than 90%, or phytotoxicity of 70% or more and less than 90%)	3 (herbicidal effect of not less than 50% and less than 70%, or phytotoxicity of 50% or more and less than 70%)	4 (herbicidal effect of not less than 70% and less than 90%, or phytotoxicity of 70% or more and less than 90%)	4 (herbicidal effect of not less than 70% and less than 90%, or phytotoxicity of 70% or more and less than 90%)	3 (herbicidal effect of not less than 50% and less than 70%, or phytotoxicity of 50% or more and less than 70%)	3 (herbicidal effect of not less than 50% and less than 70%, or phytotoxicity of 50% or more and less than 70%)	4 (herbicidal effect of not less than 70% and less than 90%, or phytotoxicity of 70% or more and less than 90%)
